Source: patent publication US11331369B2, “Endoparasitic depsipeptides” (Zoetis Services LLC, priority 2017, dated 2022)

Tested on: microfilariae of Dirofilaria immitis
Test: Dirofilaria immitis, Microfilaria (DiMF) In vitro Assay
Assay type: cell-based
Settings: 72 h, read-out: DiMF Minimum Effective Dose (MED), approximately 72 hours incubation, microfilariae assessed for survival or paralysis

CC(C)C[C@H]1C(=O)O[C@H](Cc2ccc(Cn3cc(-c4ccccc4)cn3)cc2)C(=O)N(C)[C@@H](CC(C)C)C(=O)O[C@H](C)C(=O)N(C)[C@@H](CC(C)C)C(=O)O[C@H](Cc2ccccc2)C(=O)N(C)[C@@H](CC(C)C)C(=O)O[C@H](C)C(=O)N1C [Example 2-3, (3S,6R,9S,12R,15S,18R,21S,24R)-6-benzyl-3,9,15,21-tetraisobutyl-4,10,12,16,22,24-hexamethyl-18-[[4-[(4-phenylpyrazol-1-yl)methyl]phenyl]methyl]-1,7,13,19-tetraoxa-4,10,16,22-tetrazacyclotetracosane-2,5,8,11,14,17,20,23-octaone]
minimal effective concentration: 0.01 to 0.1 µM

CC(C)C[C@H]1C(=O)O[C@H](Cc2ccc(Cn3cc(-c4ccc(F)cc4)cn3)cc2)C(=O)N(C)[C@@H](CC(C)C)C(=O)O[C@H](C)C(=O)N(C)[C@@H](CC(C)C)C(=O)O[C@H](Cc2ccccc2)C(=O)N(C)[C@@H](CC(C)C)C(=O)O[C@H](C)C(=O)N1C [Example 2-5, (3S,6R,9S,12R,15S,18R,21S,24R)-6-benzyl-18-[[4-[[4-(4-fluorophenyl)pyrazol-1-yl]methyl]phenyl]methyl]-3,9,15,21-tetraisobutyl-4,10,12,16,22,24-hexamethyl-1,7,13,19-tetraoxa-4,10,16,22-tetrazacyclotetracosane-2,5,8,11,14,17,20,23-octaone]
minimal effective concentration: 0.01 to 0.1 µM

CC(C)C[C@H]1C(=O)O[C@H](Cc2ccc(Cn3cc(C(C)(C)C)cn3)cc2)C(=O)N(C)[C@@H](CC(C)C)C(=O)O[C@H](C)C(=O)N(C)[C@@H](CC(C)C)C(=O)O[C@H](Cc2ccccc2)C(=O)N(C)[C@@H](CC(C)C)C(=O)O[C@H](C)C(=O)N1C [Example 2-8, (3S,6R,9S,12R,15S,18R,21S,24R)-6-benzyl-18-[[4-[(4-tert-butylpyrazol-1-yl)methyl]phenyl]methyl]-3,9,15,21-tetraisobutyl-4,10,12,16,22,24-hexamethyl-1,7,13,19-tetraoxa-4,10,16,22-tetrazacyclotetracosane-2,5,8,11,14,17,20,23-octaone]
minimal effective concentration: 0.01 to 0.1 µM

CCc1cnn(Cc2ccc(C[C@H]3OC(=O)[C@H](CC(C)C)N(C)C(=O)[C@@H](C)OC(=O)[C@H](CC(C)C)N(C)C(=O)[C@@H](Cc4ccccc4)OC(=O)[C@H](CC(C)C)N(C)C(=O)[C@@H](C)OC(=O)[C@H](CC(C)C)N(C)C3=O)cc2)c1 [Example 2-9, (3S,6R,9S,12R,15S,18R,21S,24R)-6-benzyl-18-[[4-[(4-ethylpyrazol-1-yl)methyl]phenyl]methyl]-3,9,15,21-tetraisobutyl-4,10,12,16,22,24-hexamethyl-1,7,13,19-tetraoxa-4,10,16,22-tetrazacyclotetracosane-2,5,8,11,14,17,20,23-octaone]
minimal effective concentration: 0.01 to 0.1 µM

Cc1nn(Cc2ccc(C[C@H]3OC(=O)[C@H](CC(C)C)N(C)C(=O)[C@@H](C)OC(=O)[C@H](CC(C)C)N(C)C(=O)[C@@H](Cc4ccccc4)OC(=O)[C@H](CC(C)C)N(C)C(=O)[C@@H](C)OC(=O)[C@H](CC(C)C)N(C)C3=O)cc2)c(C)c1C [Example 2-11, (3S,6R,9S,12R,15S,18R,21S,24R)-6-benzyl-3,9,15,21-tetraisobutyl-4,10,12,16,22,24-hexamethyl-18-(4-((3,4,5-trimethyl-1H-pyrazol-1-yl)methyl)benzyl)-1,7,13,19-tetraoxa-4,10,16,22-tetraazacyclotetracosan-2,5,8,11,14,17,20,23-octaone]
minimal effective concentration: 0.01 to 0.1 µM

CCOC(=O)c1cnn(Cc2ccc(C[C@H]3OC(=O)[C@H](CC(C)C)N(C)C(=O)[C@@H](C)OC(=O)[C@H](CC(C)C)N(C)C(=O)[C@@H](Cc4ccccc4)OC(=O)[C@H](CC(C)C)N(C)C(=O)[C@@H](C)OC(=O)[C@H](CC(C)C)N(C)C3=O)cc2)c1 [Example 2-12, ethyl 1-(4-(((2R,5S,8R,11S,14R,17S,20R,23S)-14-benzyl-5,11,17,23-tetraisobutyl-4,8,10,16,20,22-hexamethyl-3,6,9,12,15,18,21,24-octaoxo-1,7,13,19-tetraoxa-4,10,16,22-tetraazacyclotetracosan-2-yl)methyl)benzyl)-1H-pyrazole-4-carboxylate]
minimal effective concentration: 0.001 to 0.01 µM

CC(=O)c1cnn(Cc2ccc(C[C@H]3OC(=O)[C@H](CC(C)C)N(C)C(=O)[C@@H](C)OC(=O)[C@H](CC(C)C)N(C)C(=O)[C@@H](Cc4ccccc4)OC(=O)[C@H](CC(C)C)N(C)C(=O)[C@@H](C)OC(=O)[C@H](CC(C)C)N(C)C3=O)cc2)c1 [Example 2-13, (3S,6R,9S,12R,15S,18R,21S,24R)-6-(4-((4-acetyl-1H-pyrazol-1-yl)methyl)benzyl)-18-benzyl-3,9,15,21-tetraisobutyl-4,10,12,16,22,24-hexamethyl-1,7,13,19-tetraoxa-4,10,16,22-tetraazacyclotetracosan-2,5,8,11,14,17,20,23-octaone]
minimal effective concentration: 0.01 to 0.1 µM

Cc1nn(Cc2ccc(C[C@H]3OC(=O)[C@H](CC(C)C)N(C)C(=O)[C@@H](C)OC(=O)[C@H](CC(C)C)N(C)C(=O)[C@@H](Cc4ccccc4)OC(=O)[C@H](CC(C)C)N(C)C(=O)[C@@H](C)OC(=O)[C@H](CC(C)C)N(C)C3=O)cc2)cc1Br [Example 2-16, (3S,6R,9S,12R,15S,18R,21S,24R)-6-benzyl-18-(4-((4-bromo-3-methyl-1H-pyrazol-1-yl)methyl)benzyl)-3,9,15,21-tetraisobutyl-4,10,12,16,22,24-hexamethyl-1,7,13,19-tetraoxa-4,10,16,22-tetraazacyclotetracosan-2,5,8,11,14,17,20,23-octaone]
minimal effective concentration: 0.01 to 0.1 µM

Cc1nn(Cc2ccc(C[C@H]3OC(=O)[C@H](CC(C)C)N(C)C(=O)[C@@H](C)OC(=O)[C@H](CC(C)C)N(C)C(=O)[C@@H](Cc4ccccc4)OC(=O)[C@H](CC(C)C)N(C)C(=O)[C@@H](C)OC(=O)[C@H](CC(C)C)N(C)C3=O)cc2)c(C)c1Br [Example 2-17, (3S,6R,9S,12R,15S,18R,21S,24R)-6-benzyl-18-(4-((4-bromo-3,5-dimethyl-1H-pyrazol-1-yl)methyl)benzyl)-3,9,15,21-tetraisobutyl-4,10,12,16,22,24-hexamethyl-1,7,13,19-tetraoxa-4,10,16,22-tetraazacyclotetracosan-2,5,8,11,14,17,20,23-octaone]
minimal effective concentration: 0.01 to 0.1 µM

CC(C)C[C@H]1C(=O)O[C@H](Cc2ccc(Cn3cc(C(F)F)cn3)cc2)C(=O)N(C)[C@@H](CC(C)C)C(=O)O[C@H](C)C(=O)N(C)[C@@H](CC(C)C)C(=O)O[C@H](Cc2ccccc2)C(=O)N(C)[C@@H](CC(C)C)C(=O)O[C@H](C)C(=O)N1C [Example 2-18, (3S,6R,9S,12R,15S,18R,21S,24R)-6-benzyl-18-(4-((4-(difluoromethyl)-1H-pyrazol-1-yl)methyl)benzyl)-3,9,15,21-tetraisobutyl-4,10,12,16,22,24-hexamethyl-1,7,13,19-tetraoxa-4,10,16,22-tetraazacyclotetracosan-2,5,8,11,14,17,20,23-octaone]
minimal effective concentration: 0.001 to 0.01 µM

CC(C)C[C@H]1C(=O)O[C@H](Cc2ccc(Cn3cc(C(F)(F)F)cn3)cc2)C(=O)N(C)[C@@H](CC(C)C)C(=O)O[C@H](C)C(=O)N(C)[C@@H](CC(C)C)C(=O)O[C@H](Cc2ccccc2)C(=O)N(C)[C@@H](CC(C)C)C(=O)O[C@H](C)C(=O)N1C [Example 2-20, (3S,6R,9S,12R,15S,18R,21S,24R)-6-benzyl-3,9,15,21-tetraisobutyl-4,10,12,16,22,24-hexamethyl-18-(4-((4-(trifluoromethyl)-1H-pyrazol-1-yl)methyl)benzyl)-1,7,13,19-tetraoxa-4,10,16,22-tetraazacyclotetracosan-2,5,8,11,14,17,20,23-octaone]
minimal effective concentration: 0.01 to 0.1 µM

CC(C)C[C@H]1C(=O)O[C@H](Cc2ccc(Cn3cc(S(=O)(=O)N4CCCCC4)cn3)cc2)C(=O)N(C)[C@@H](CC(C)C)C(=O)O[C@H](C)C(=O)N(C)[C@@H](CC(C)C)C(=O)O[C@H](Cc2ccccc2)C(=O)N(C)[C@@H](CC(C)C)C(=O)O[C@H](C)C(=O)N1C [Example 2-21, (3S,6R,9S,12R,15S,18R,21S,24R)-6-benzyl-3,9,15,21-tetraisobutyl-4,10,12,16,22,24-hexamethyl-18-(4-((4-(piperidin-1-ylsulfonyl)-1H-pyrazol-1-yl)methyl)benzyl)-1,7,13,19-tetraoxa-4,10,16,22-tetraazacyclotetracosan-2,5,8,11,14,17,20,23-octaone]
minimal effective concentration: 0.01 to 0.1 µM

CC(C)C[C@H]1C(=O)O[C@H](Cc2ccc(Cn3cc(S(=O)(=O)N4CCOCC4)cn3)cc2)C(=O)N(C)[C@@H](CC(C)C)C(=O)O[C@H](C)C(=O)N(C)[C@@H](CC(C)C)C(=O)O[C@H](Cc2ccccc2)C(=O)N(C)[C@@H](CC(C)C)C(=O)O[C@H](C)C(=O)N1C [Example 2-23, (3S,6R,9S,12R,15S,18R,21S,24R)-6-benzyl-3,9,15,21-tetraisobutyl-4,10,12,16,22,24-hexamethyl-18-(4-((4-(morpholinosulfonyl)-1H-pyrazol-1-yl)methyl)benzyl)-1,7,13,19-tetraoxa-4,10,16,22-tetraazacyclotetracosan-2,5,8,11,14,17,20,23-octaone]
minimal effective concentration: 0.01 to 0.1 µM

CC(C)C[C@H]1C(=O)O[C@H](Cc2ccc(Cn3cc(S(=O)(=O)N4CCCC4)cn3)cc2)C(=O)N(C)[C@@H](CC(C)C)C(=O)O[C@H](C)C(=O)N(C)[C@@H](CC(C)C)C(=O)O[C@H](Cc2ccccc2)C(=O)N(C)[C@@H](CC(C)C)C(=O)O[C@H](C)C(=O)N1C [Example 2-24, (3S,6R,9S,12R,15S,18R,21S,24R)-6-benzyl-3,9,15,21-tetraisobutyl-4,10,12,16,22,24-hexamethyl-18-(4-((4-(pyrrolidin-1-ylsulfonyl)-1H-pyrazol-1-yl)methyl)benzyl)-1,7,13,19-tetraoxa-4,10,16,22-tetraazacyclotetracosan-2,5,8,11,14,17,20,23-octaone]
minimal effective concentration: 0.01 to 0.1 µM

CCCc1cnn(Cc2ccc(C[C@H]3OC(=O)[C@H](CC(C)C)N(C)C(=O)[C@@H](C)OC(=O)[C@H](CC(C)C)N(C)C(=O)[C@@H](Cc4ccccc4)OC(=O)[C@H](CC(C)C)N(C)C(=O)[C@@H](C)OC(=O)[C@H](CC(C)C)N(C)C3=O)cc2)c1 [Example 2-26, (3S,6R,9S,12R,15S,18R,21S,24R)-6-benzyl-3,9,15,21-tetraisobutyl-4,10,12,16,22,24-hexamethyl-18-(4-((4-propyl-1H-pyrazol-1-yl)methyl)benzyl)-1,7,13,19-tetraoxa-4,10,16,22-tetraazacyclotetracosan-2,5,8,11,14,17,20,23-octaone]
minimal effective concentration: 0.01 to 0.1 µM
